In patent US12091425B2 (AMGEN INC., priority 2016, dated 2024):

Experiments:
[1] = test system: OPM-2 human multiple myeloma cell line; assay: Cell Viability Assay (OPM-2 10 FBS); type: cell-based; conditions: OPM-2 cells, CellTiter-Glo
How it was run: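 OPM-2 myeloma cells, 3000/well in medium with 10% FBS, exposed to serially diluted compounds for 16 h at 37° C./5% CO2. Viability read by CellTiter-Glo luminescence; IC50 from 4-parameter logistic fit.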

[2] = target: T1, Mcl-1/Bim interaction, recombinant human Mcl-1 (171-327) (Homo sapiens, UniProt Q07820); assay: Cell free Mcl-1: Bim Affinity Assay (Mcl-1 HTRF); type: binding
T1 construct: made in house
T1 sequence (Q07820 171-327): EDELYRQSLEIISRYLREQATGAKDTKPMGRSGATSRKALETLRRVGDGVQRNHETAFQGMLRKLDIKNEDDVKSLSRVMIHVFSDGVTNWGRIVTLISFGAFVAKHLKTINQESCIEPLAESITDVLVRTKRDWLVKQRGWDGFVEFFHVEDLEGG
How it was run: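 Displacement of biotinylated Bim 51-76 peptide is followed by TR-FRET. Incubation runs overnight. Duplicate points are fitted with a four-parameter sigmoid to yield IC50.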

[3] = Homo sapiens, OPM-2, 16 h, 16 h
[4] = cell free Mcl-1:Bim TR-FRET, recombinant human Mcl-1 (171-327)
[5] = TR-FRET, 0.1 nM Mcl-1 (171-327), 0.05 nM biotin-Bim (51-76)

| IC50 [1, 3] | IC50 [2, 4] | IC50 [2, 5] | IC50 ([1]; Homo sapiens, OPM-2, 16 h, 16 h incubation) | SMILES | IC50 ([1]; 16 h) |
| --- | --- | --- | --- | --- | --- |
| 420 nM | 0.485 nM | – | – | C[C@@H]1[C@@H](C)C/C=C\[C@H](OCCN2CCOCC2)[C@@H]2CC[C@H]2CN2C[C@@]3(CCCc4cc(Cl)ccc43)COc3ccc(cc32)C(=O)NS1(=O)=O [Example 724, (1S,3′R,6′R,7′S,8′Z,11′S,12′R)-6-chloro-11′,12′-dimethyl-7′-(2-(4-morpholinyl)ethoxy)-3,4-dihydro-2H,15′H-spiro[naphthalene-1,22′-[20]oxa[13]thia[1,14]diazatetracyclo[14.7.2.0^3,6.0^19,24]pentacosa [8,16,18,24]tetraen]-15′-one 13′,13′-dioxide] | – |
| 3670 nM | – | 0.216 nM | – | O=C(O)CO[C@@H]1/C=C/CCCS(=O)(=O)NC(=O)c2ccc3c(c2)N(C[C@@H]2CC[C@H]21)C[C@@]1(CCCc2cc(Cl)ccc21)CO3 [Example 218, (((1S,3′R,6′R,7′R,8′E)-6-chloro-13′,13′-dioxido-15′-oxo-3,4-dihydro-2H-spiro[naphthalene-1,22′-[20]oxa[13]thia[1,14]diazatetracyclo[14.7.2.0^3,6.0^19,24]pentacosa [8,16,18,24]tetraen]-7′-yl)oxy)acetic acid] | – |
| 862 nM | 1.06 nM | – | – | C[C@@H]1[C@@H](C)C/C=C/[C@H](OCCN2CCC2)[C@@H]2CC[C@H]2CN2C[C@@]3(CCCc4cc(Cl)ccc43)COc3ccc(cc32)C(=O)NS1(=O)=O [Example 526, (1S,3′R,6′R,7′S,8′E,11′S,12′R)-7′-(2-(1-azetidinyl)ethoxy)-6-chloro-11′,12′-dimethyl-3,4-dihydro-2H,15′H-spiro[naphthalene-1,22′-[20]oxa[13]thia[1,14]diazatetracyclo[14.7.2.0^3,6.0^19,24]pentacosa [8,16,18,24]tetraen]-15′-one 13′,13′-dioxide 2,2,2-trifluoroacetic Acid] | – |
| 1760 nM | 3.21 nM | – | – | CCOC(=O)CO[C@H]1/C=C/C[C@H](C)[C@H](C)S(=O)(=O)NC(=O)c2ccc3c(c2)N(C[C@@H]2CC[C@H]21)C[C@@]1(CCCc2cc(Cl)ccc21)CO3 [Example 738, ethyl (((1S,3′R,6′R,7′S,8′E,11′S,12′S)-6-chloro-11′,12′-dimethyl-13′,13′-dioxido-15′-oxo-3,4-dihydro-2H-spiro[naphthalene-1,22′-[20]oxa[13]thia[1,14]diazatetracyclo[14.7.2.0^3,6.0^19,24]pentacosa[8,16,18,24]tetraen]-7′-yl)oxy)acetate] | – |
| 3540 nM | – | 3.31 nM | – | C=CCN1CCCC[C@H](O)[C@@H]2CC[C@H]2CN2C[C@@]3(CCCc4cc(Cl)ccc43)COc3ccc(cc32)C(=O)NS1(=O)=O [Example 87, (1S,3′R,6′R,7′S)-6-chloro-7′-hydroxy-12′-(2-propen-1-yl)-3,4-dihydro-2H,15′H-spiro[naphthalene-1,22′-[20]oxa[13]thia[1,12,14]triazatetracyclo[14.7.2.0^3,6.0^19,24]pentacosa[16,18,24]trien]-15′-one 13′,13′-dioxide] | – |
| 2980 nM | – | 2.02 nM | – | O=C1NS(=O)(=O)[C@@H]2CCC[C@@H]2C/C=C/[C@H](O)[C@@H]2CC[C@H]2CN2C[C@@]3(CCCc4cc(Cl)ccc43)COc3ccc1cc32 (single isomer, unassigned) [Example 323] | – |
| 162 nM | – | 0.0986 nM | – | C[C@@H]1[C@@H](C)C/C=C/[C@H](OCC(=O)N2CCN(C)CC2)[C@@H]2CC[C@H]2CN2C[C@@]3(CCCc4cc(Cl)ccc43)COc3ccc(cc32)C(=O)NS1(=O)=O [Example 316, (1S,3′R,6′R,7′S,8′E,11′S,12′R)-6-chloro-11′,12′-dimethyl-7′-(2-(4-methyl-1-piperazinyl)-2-oxoethoxy)-3,4-dihydro-2H,15′H-spiro[naphthalene-1,22′-[20]oxa[13]thia[1,14]diazatetracyclo[14.7.2.0^3,6.0^19,24]pentacosa [8,16,18,24]tetraen]-15′-one 13′,13′-dioxide] | – |
| 134 nM | 1.12 nM | – | – | C[C@@H]1[C@@H](C)C/C=C/[C@H](OCCN2CCN(S(C)(=O)=O)CC2)[C@@H]2CC[C@H]2CN2C[C@@]3(CCCc4cc(Cl)ccc43)COc3ccc(cc32)C(=O)NS1(=O)=O [Example 734] | – |
| 2120 nM | – | 0.136 nM | – | C[C@@H]1[C@@H](C)C/C=C/[C@H](OCC(=O)N2CCNC(=O)C2)[C@@H]2CC[C@H]2CN2C[C@@]3(CCCc4cc(Cl)ccc43)COc3ccc(cc32)C(=O)NS1(=O)=O [Example 314, (1S,3′R,6′R,7′S,8′E,11′S,12′R)-6-chloro-11′,12′-dimethyl-7′-(2-oxo-2-(3-oxo-1-piperazinyl)ethoxy)-3,4-dihydro-2H,15′H-spiro[naphthalene-1,22′-[20]oxa[13]thia[1,14]diazatetracyclo[14.7.2.0^3,6.0^19,24]pentacosa [8,16,18,24]tetraen]-15′-one 13′,13′-dioxide] | – |
| – | – | 0.253 nM | 3890 nM | C[C@@H]1CC/C=C/[C@H](OCc2nc[nH]n2)[C@@H]2CC[C@H]2CN2C[C@@]3(CCCc4cc(Cl)ccc43)COc3ccc(cc32)C(=O)NS1(=O)=O [Example 958, (1S,3′R,6′R,7′S,8′E,12′R)-6-chloro-12′-methyl-7′-(4H-1,2,4-triazol-3-ylmethoxy)-3,4-dihydro-2H,15′H-spiro[naphthalene-1,22′-[20]oxa[13]thia[1,14]diazatetracyclo[14.7.2.0^3,6.0^19,24]pentacosa [8,16,18,24]tetraen]-15′-one 13′,13′-dioxide] | – |
| – | – | 0.341 nM | – | CO[C@H]1/C=C/[C@@H](CO)C[C@H](C)S(=O)(=O)NC(=O)c2ccc3c(c2)N(C[C@@H]2CC[C@H]21)C[C@@]1(CCCc2cc(Cl)ccc21)CO3 (single isomer, unassigned) [Example 127] | 1850 nM |
| 8160 nM | – | 0.168 nM | – | O=C(O)CCN1CC/C=C/[C@H](O)[C@@H]2CC[C@H]2CN2C[C@@]3(CCCc4cc(Cl)ccc43)COc3ccc(cc32)C(=O)NS1(=O)=O [Example 33, 3-((1S,3′R,6′R,7′S,8′E)-6-chloro-7′-hydroxy-13′,13′-dioxido-15′-oxo-3,4-dihydro-2H,12′H-spiro[naphthalene-1,22′-[20]oxa[13]thia[1,12,14]triazatetracyclo[14.7.2.0^3,6.0^19,24]pentacosa[8,16,18,24]tetraen]-12′-yl)propanoic Acid] | – |
| 268 nM | 0.437 nM | – | – | C[C@@H]1[C@@H](C)C/C=C/[C@H](OCCN2CCCCC2=O)[C@@H]2CC[C@H]2CN2C[C@@]3(CCCc4cc(Cl)ccc43)COc3ccc(cc32)C(=O)NS1(=O)=O [Example 728, (1S,3′R,6′R,7′S,8′E,11′S,12′R)-6-chloro-11′,12′-dimethyl-7′-(2-(2-oxo-1-piperidinyl)ethoxy)-3,4-dihydro-2H,15′H-spiro[naphthalene-1,22′-[20]oxa[13]thia[1,14]diazatetracyclo[14.7.2.0^3,6.0^19,24]pentacosa [8,16,18,24]tetraen]-15′-one-13′, 13′-dioxide] | – |
| 2280 nM | – | 12.3 nM | – | Cc1noc(C)c1CO[C@@H]1/C=C/CCCS(=O)(=O)NC(=O)c2ccc3c(c2)N(C[C@@H]2CC[C@H]21)C[C@@]1(CCCc2cc(Cl)ccc21)CO3 [Example 214, (1S,3′R,6′R,7′R,8′E)-6-chloro-7′-((3,5-dimethyl-4-isoxazolyl)methoxy)-3,4-dihydro-2H,15′H-spiro[naphthalene-1,22′-[20]oxa[13]thia[1,14]diazatetracyclo[14.7.2.0^3,6.0^19,24]pentacosa [8,16,18,24]tetraen]-15′-one 13′,13′-dioxide] | – |
| 248 nM | – | 0.501 nM | – | CCC1CCC=CC(OC2CCOC2=O)C2CCC2CN2CC3(CCCc4cc(Cl)ccc43)COc3ccc(cc32)C(=O)NS1(=O)=O (single isomer, unassigned) [Example 424] | – |
| 2370 nM | – | 1.11 nM | – | CN(C)C(=O)CCO[C@@H]1/C=C/CCCS(=O)(=O)NC(=O)c2ccc3c(c2)N(C[C@@H]2CC[C@H]21)C[C@@]1(CCCc2cc(Cl)ccc21)CO3 [Example 211, 3-(((1S,3′R,6′R,7′R,8′E)-6-chloro-13′,13′-dioxido-15′-oxo-3,4-dihydro-2H-spiro[naphthalene-1,22′-[20]oxa[13]thia[1,14]diazatetracyclo[14.7.2.0^3,6.0^19,24]pentacosa [8,16,18,24]tetraen]-7′-yl)oxy)-N,N-dimethylpropanamide] | – |
| 536 nM | – | 0.995 nM | – | CCN1CC/C=C/[C@H](OCC(=O)OC)[C@@H]2CC[C@H]2CN2C[C@@]3(CCCc4cc(Cl)ccc43)COc3ccc(cc32)C(=O)NS1(=O)=O [Example 43, methyl(((1S,3′R,6′R,7′S,8′E)-6-chloro-12′-ethyl-13′,13′-dioxido-15′-oxo-3,4-dihydro-2H-spiro[naphthalene-1,22′-[20]oxa[13]thia[1,12,14]triazatetracyclo[14.7.2.0^3,6.0^19,24]pentacosa[8,16,18,24]tetraen]-7′-yl)oxy)acetate] | – |

| SMILES | IC50 [1, 3] | IC50 [2, 4] | IC50 [2, 5] | IC50 ([1]; Homo sapiens, OPM-2, 16 h, 16 h incubation) | IC50 ([1]; 16 h) |
| --- | --- | --- | --- | --- | --- |
| CC(C)(C)S(=O)(=O)CC[C@H]1CC/C=C/[C@H](O)[C@@H]2CC[C@H]2CN2C[C@@]3(CCCc4cc(Cl)ccc43)COc3ccc(cc32)C(=O)NS1(=O)=O (single isomer, unassigned) [Example 155] | – | – | 0.846 nM | – | 11600 nM |
| CN(C)S(=O)(=O)N1CCN(C(=O)CC[C@@H]2CC/C=C/[C@H](O)[C@@H]3CC[C@H]3CN3C[C@@]4(CCCc5cc(Cl)ccc54)COc4ccc(cc43)C(=O)NS2(=O)=O)CC1 (single isomer, unassigned) [Example 626] | – | 0.305 nM | – | – | 2200 nM |
| COCC[C@@H]1[C@@H](C)C/C=C/[C@H](O)[C@@H]2CC[C@H]2CN2C[C@@]3(CCCc4cc(Cl)ccc43)COc3ccc(cc32)C(=O)NS1(=O)=O (single isomer, unassigned) [Example 393] | – | – | 0.213 nM | – | 137 nM |
